# Assay results as given in PubChem BioAssay (NCI).
# Where “and” joins values, the source holds several entries; their conditions need not be identical. Equal values may be shown once.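 These data come from cells grown in 96-well plates and exposed to compound for 48 hours at five concentrations. The concentration for 50% growth inhibition is given as GI50. TGI marks complete inhibition of growth.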
# Tests used:
# Assay in all cases: inhibition of tumour cell growth, NCI panel, 48 h
# SNB-75 CNS = system: SNB-75 CNS
# HT29 colon = system: HT29 colon
# HCC-2998 colon = system: HCC-2998 colon
# K-562 leukemia = system: K-562 leukemia
# OVCAR-8 ovarian = system: OVCAR-8 ovarian
# MCF7 breast = system: MCF7 breast
# SK-MEL-28 melanoma = system: SK-MEL-28 melanoma
# CCRF-CEM leukemia = system: CCRF-CEM leukemia
# A498 renal = system: A498 renal
# UO-31 renal = system: UO-31 renal
SMILES,GI50 (SNB-75 CNS),TGI (SNB-75 CNS),GI50 (HT29 colon),TGI (HT29 colon) [µM],GI50 (HCC-2998 colon),TGI (HCC-2998 colon),GI50 (K-562 leukemia) [µM],TGI (K-562 leukemia) [µM],GI50 (OVCAR-8 ovarian),TGI (OVCAR-8 ovarian),GI50 (MCF7 breast),TGI (MCF7 breast),GI50 (SK-MEL-28 melanoma),TGI (SK-MEL-28 melanoma),GI50 (CCRF-CEM leukemia),TGI (CCRF-CEM leukemia),GI50 (A498 renal),TGI (A498 renal),GI50 (UO-31 renal),TGI (UO-31 renal)
N#Cc1c(-c2ccc(Cl)cc2)n(O)c2ccccc12,1.21 µM,4.44 µM,4.84 µM,20.9,3 µM,8.01 µM,0.949,> 100,2.65 µM,8.78 µM,2.67 µM,> 100 µM,1.42 µM,26.4 µM,3.37 µM,23.2 µM,1.38 µM,4.09 µM,2.6 µM,9.24 µM
COc1ccc(Nn2c(SCC(=O)Nc3nc(-c4ccc(Cl)cc4)cs3)nc(C)c2C)cc1,4.8 µM,> 100 µM,4.61 µM,50.4,3.07 µM,9.91 µM,1.58,> 100,4.82 µM,> 100 µM,3.36 µM,25.5 µM,18 µM,> 100 µM,3.82 µM,> 100 µM,2.22 µM,56.5 µM,2.62 µM,> 100 µM
COc1ccc(NC(=O)n2nc(N)c3ccccc32)cc1OC,30.6 µM,> 100 µM,48.2 µM,> 100,61.1 µM,> 100 µM,41.2,> 100,39.7 µM,> 100 µM,29.5 µM,> 100 µM,> 100 µM,> 100 µM,36.7 µM,> 100 µM,30.3 µM,85.4 µM,28.5 µM,> 100 µM
CCC(C)n1cc(C)c2c(C(=O)NCc3c(C)cc(C)[nH]c3=O)cc(Br)cc21 (stereo not drawn),43.5 µM,> 100 µM,41.5 µM,> 100,52.4 µM,> 100 µM,34.6,> 100,63.7 µM,> 100 µM,29.4 µM,> 100 µM,72.5 µM,> 100 µM,30.8 µM,> 100 µM,38.4 µM,> 100 µM,70.5 µM,> 100 µM
NC(CSC(c1ccccc1)(c1ccccc1)c1ccc(Cl)cc1)C(=O)O (stereo not drawn),,1.85 µM,0.347 µM,6.92,0.276 µM,2.77 µM,0.209,> 57.6,0.412 µM,44.8 µM,0.0647 µM,18.9 µM,2.46 µM,44.3 µM,0.386 µM,40 µM,0.746 µM,48.8 µM,6.13 µM,> 83.4 µM
COc1ccccc1-n1c(-c2cc(O)ccc2C)cn2c3c(=O)[nH]c(=O)n(C)c3nc12,0.129 µM,1.12 µM,1.62 µM,8.12,> 100 µM,> 100 µM,0.31,> 100,10.9 µM,> 100 µM,> 100 µM,> 100 µM,> 100 µM,> 100 µM,> 100 µM,> 100 µM,25 µM,> 100 µM,9.33 µM,> 100 µM
CC1/C=C/C=C/C=C/C=C/C=C/C=C/C=C/C(O[C@@H]2O[C@H](C)[C@H](O)[C@@H](O)[C@@H]2N)CC(O)C(C(=O)O)C(O)CC(=O)CC(O)CC(O)CC(O)CC(=O)CCCC(=O)CC(=O)OC1C(C)CC(C)C(O)CC(=O)c1ccc(N)cc1 (stereo partly drawn),0.0596 µM and 0.242 µM,0.12 µM and 0.787 µM,0.0585 µM and 0.345 µM,,0.058 µM and 0.302 µM,0.104 µM and 1.03 µM,0.0716,0.175,0.0701 µM and 0.347 µM,0.152 µM and 1.23 µM,0.0797 µM and 0.422 µM,0.173 µM and 1.59 µM,0.0622 µM and 0.189 µM,0.108 µM and 0.356 µM,0.0627 µM and 0.206 µM,0.141 µM and 0.489 µM,0.0512 µM and 0.159 µM,0.0948 µM and 0.32 µM,0.0456 µM and 0.159 µM,0.0882 µM and 0.328 µM
CC(=O)OC1CC(n2cc(F)c(=O)[nH]c2=O)OC1CO (stereo not drawn),,> 100 µM,,> 100,,8.33 µM,,> 100,,> 100 µM,,> 28.3 µM,,> 100 µM,,> 100 µM,,15.5 µM,,> 92.6 µM
NC(=NCCCOc1ccc(Cl)cc1)Nc1ccc(Cl)cc1,0.725 µM,11.8 µM,2.12 µM,5.95,1.5 µM,3.12 µM,1.85,4.32,3.16 µM,12.1 µM,2.2 µM,7.35 µM,1.89 µM,3.64 µM,2.11 µM,6.74 µM,1.92 µM,5.43 µM,2.17 µM,8.1 µM
CC(C)[C@@]12C[C@@H](OC(=O)[C@H]3CO3)[C@@](C)(O1)[C@@H]1CC[C@@H](C)[C@H]1[C@@H]2OC(=O)/C=C/c1ccccc1,2.72 µM,29.7 µM,27.6 µM,> 100,17.8 µM,41.5 µM,18.5,> 100,0.434 µM,> 52.4 µM,9.33 µM,> 100 µM,18.7 µM,57.2 µM,18 µM,> 84.7 µM,0.217 µM,0.684 µM,0.177 µM,0.416 µM
CCOc1ccc([C@@H]2[C@@H](Oc3ccccc3)C(=O)N2c2cc(OC)c(OC)c(OC)c2)cc1,0.037 µM,> 100 µM,0.0491 µM,0.522,0.468 µM,> 100 µM,0.0367,> 100,0.0463 µM,> 100 µM,0.0431 µM,> 100 µM,1.89 µM,> 100 µM,0.048 µM,> 100 µM,0.0205 µM,0.0853 µM,0.613 µM,> 100 µM
C/C(=N\NC(=O)c1ccncc1)c1ccc2ccccc2c1O,,> 43.8 µM,,> 58.6,,53.8 µM,,> 100,,35.3 µM,,14 µM,,> 100 µM,,> 100 µM,,53.3 µM,,38.5 µM
CC(=O)Nc1ccc(Sc2ccc([N+](=O)[O-])o2)cc1,2.78 µM,12.8 µM,1.56 µM,3.25,1.9 µM,3.52 µM,2.22,> 30.8,3.06 µM,13.4 µM,1.88 µM,6.92 µM,1.75 µM,3.6 µM,0.886 µM,3.93 µM,12.2 µM,25 µM,3.9 µM,13 µM
